The nature of data set [1]: Fluorescence response of the sensor to NO in buffered aqueous solution.
In another data set the target is T1, iNOS (Mus musculus, UniProt P29477).
T1 construct: endogenous in cells; host or cells: Raw 264.7 murine macrophage cells (ATCC), stimulated with LPS and IFN-gamma
Nature of the data set: Attenuation of Cu(FL5) fluorescence response by iNOS inhibitor in stimulated Raw 264.7 cells. Type of data set: cell-based, murine.

Data set [2] deals with SK—N—SH human neuroblastoma cells. Kind of data set: Detection of NO produced by cNOS in estradiol-stimulated SK—N—SH cells (fluorescence microscopy). Type of data set: cell-based. The method, then:
(§1) FIG. 10 illustrates Cu(FL5) detection of NO produced by cNOS. (a) NO detection in SK—N—SH cells by Cu^II(FL5). Left to right: 25 min incubation of Cu(FL5) (1 μM) and 5, 10, 15, 25 min after co-treatment of Cu(FL5) (1 μM) and 17β-estradiol (100 nM). Images were taken with a Nikon Eclipse TS100 microscope after removing the DMEM media and washing the cells with PBS. Top: fluorescence images; bottom: phase contrast images. (b) Fluorescence intensity (F(t)/FCu(FL5)) from a was plotted against incubation time. (c) NO production with or without of L-NNA. Right: NO detection in cells after 10 min co-incubation of Cu(FL5) (1 μM) and 17β-estradiol (100 nM). Left: NO detection in cells pre-treated with L-NNA for 1 h before addition of Cu(FL5) and 17β-estradiol.
We investigated the ability of Cu(FL5) to detect NO produced in SK—N—SH human neuroblastoma cells under physiological conditions, since constitutive NO synthase (“cNOS”) in this cell line can be activated by estrogen to produce NO. […] The NO-dependent fluorescence response, monitored after simultaneous administration of 17β-estradiol (100 nM) and Cu(FL5) (1 μM) to the cells, was complete within 5 min with a 4.0±0.6-fold increase in fluorescence (FIGS. 10a and b). […]
Firstly, Cu(FL5) visualizes NO in the estradiol-stimulated neuroblastoma cells with brighter fluorescence than DAF-2 DA (o-diaminofluorescein diacetate). […]

The nature of data set [3]: Stability of nitrosated ligand at pH 7.0 (LC-MS). The data set is classed as physicochemical. To be noted: pH 7.0 buffered aqueous solution. The source says:
High resolution MS of FL5-^14NO and FL-^15NO were also obtained, showing m/z=600.0729 for FL5-^14NO and 601.0736 for FL5-^15NO, corresponding to [FL5+NO—H+Cl]^− (calcd. m/z 600.0729 and 601.0700).

The next data set concerns cNOS. Kind of data set: Attenuation of Cu(FL5) fluorescence response by cNOS inhibitor in SK—N—SH cells. The data set is classed as cell-based, human. To be noted: SK—N—SH cells pre-treated with L-NNA for 1 h, 17β-estradiol. As to the method:
as §1
We investigated the ability of Cu(FL5) to detect NO produced in SK—N—SH human neuroblastoma cells under physiological conditions, since constitutive NO synthase (“cNOS”) in this cell line can be activated by estrogen to produce NO. Estrogen administration leads to an increase in the cytosolic Ca(II) concentration that alters the structure of calmodulin, which in turn activates cNOS. The NO-dependent fluorescence response, monitored after simultaneous administration of 17β-estradiol (100 nM) and Cu(FL5) (1 μM) to the cells, was complete within 5 min with a 4.0±0.6-fold increase in fluorescence (FIGS. 10a and b). […]

The nature of data set [4]: FL5 binding of Cu(II): absorption titration with CuCl2 and fluorescence quenching. To be noted: 1 μM FL5 solution, 37° C. As to the method:
Derivatized fluorescein molecules are excellent biosensors because they excite and emit in a region of the visible spectrum that is relatively free of interference. We prepared the fluorescein-based ligand FL5 (FIG. 7) by reacting 7′-chloro-4′-fluorescein-carboxaldehyde with 8-aminoquinaldine. We generated the Cu(II) fluorescein-based NO probe Cu(FL5) (FIG. 4) in situ reacting FL5 (prepared as described below) with CuCl2 in a 1:1 ratio in buffered aqueous solution (50 mM PIPES, pH 7.0, 100 mM KCl). […] A Job's plot was constructed to evaluate the nature of the FL5:Cu(II) complex by following the UV-vis absorption spectral change at 512 nm in pH 7.0 buffered solution. A break at 0.5 indicated the formation of a 1:1 complex.
The fluorescence of a 1 μM FL5 solution was diminished by 18±3% upon introduction of an equimolar quantity of CuCl2 at 37° C. Addition of excess NO to a buffered aqueous Cu(FL5) solution led to an immediate 11.2±1.5-fold increase in fluorescence (FIG. 8). […] The lower detection limit for NO is 5 nM.

The test system of data set [5] is Raw 264.7 murine macrophage. Kind of data set: Detection of NO produced by iNOS in LPS and IFN-γ stimulated Raw 264.7 cells (fluorescence microscopy). The data set is classed as cell-based. To be noted: 12 h incubation period.

T1 sequence (P29477 whole entry): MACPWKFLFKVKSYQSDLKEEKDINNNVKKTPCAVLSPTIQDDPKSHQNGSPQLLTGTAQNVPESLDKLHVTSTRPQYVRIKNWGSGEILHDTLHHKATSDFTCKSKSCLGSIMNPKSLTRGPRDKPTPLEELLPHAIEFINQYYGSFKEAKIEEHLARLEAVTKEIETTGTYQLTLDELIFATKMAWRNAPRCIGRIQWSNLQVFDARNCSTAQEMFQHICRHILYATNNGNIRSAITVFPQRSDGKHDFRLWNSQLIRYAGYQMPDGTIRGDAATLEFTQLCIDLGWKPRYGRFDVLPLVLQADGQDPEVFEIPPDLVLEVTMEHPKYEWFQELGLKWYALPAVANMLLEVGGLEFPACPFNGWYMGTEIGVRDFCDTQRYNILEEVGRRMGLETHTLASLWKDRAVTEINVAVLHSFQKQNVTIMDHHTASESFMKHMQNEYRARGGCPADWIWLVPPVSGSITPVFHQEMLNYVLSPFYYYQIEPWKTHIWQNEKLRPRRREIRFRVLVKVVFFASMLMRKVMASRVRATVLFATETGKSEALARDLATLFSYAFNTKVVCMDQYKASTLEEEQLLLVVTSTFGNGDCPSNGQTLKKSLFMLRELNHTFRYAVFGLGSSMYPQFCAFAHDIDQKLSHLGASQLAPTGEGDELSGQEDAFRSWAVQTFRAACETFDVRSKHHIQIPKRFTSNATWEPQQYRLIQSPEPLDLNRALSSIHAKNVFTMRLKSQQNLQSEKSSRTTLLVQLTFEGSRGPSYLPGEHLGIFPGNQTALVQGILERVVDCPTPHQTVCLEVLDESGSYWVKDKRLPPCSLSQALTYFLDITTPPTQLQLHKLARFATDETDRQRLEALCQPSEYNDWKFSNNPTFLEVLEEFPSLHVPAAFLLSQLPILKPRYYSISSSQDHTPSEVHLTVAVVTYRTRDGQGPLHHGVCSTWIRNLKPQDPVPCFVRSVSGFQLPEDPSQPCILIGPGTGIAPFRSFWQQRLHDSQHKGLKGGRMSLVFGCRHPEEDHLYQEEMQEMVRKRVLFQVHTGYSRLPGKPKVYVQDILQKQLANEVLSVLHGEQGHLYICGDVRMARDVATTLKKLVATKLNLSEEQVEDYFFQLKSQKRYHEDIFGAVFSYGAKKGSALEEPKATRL

Take “o-diaminofluorescein [DAF-2, reference compound]”: the “fluorescence in the presence of NO and the absence of O2” value in data set [1] (over a period of 1 h) is “unchanged”.

With `CNC(=N)NCCC[C@H](N)C(=O)O` [L-NMA, N^G-methyl-L-arginine], the “Cu(FL5) fluorescence response in the presence of iNOS inhibitor” value on iNOS was “notably weaker fluorescence response”.

On to `CC(=O)Oc1ccc2c(c1)Oc1cc(OC(C)=O)ccc1C21OC(=O)c2cc(N)c(N)cc21` [DAF-2 DA, o-diaminofluorescein diacetate, reference compound], for which the “fluorescence change of treated cells after activation of cNOS” value in data set [2] (30 min after activation of cNOS) is on record as “only a slight fluorescence increase”.

With `Cc1ccc2cccc(N(Cc3c(O)ccc4c(-c5ccccc5C(=O)O)c5cc(Cl)c(=O)cc-5oc34)N=O)c2n1` [FL5-NO, 2-{2-chloro-6-hydroxy-5-[((2-methylquinolin-8-yl)(nitroso)amino)-methyl]-3-oxo-3H-xanthen-9-yl}-benzoic acid], the “stability at pH 7.0” value in data set [3] is on record as “stable for several days”.

Turning to `N=C(NCCC[C@H](N)C(=O)O)N[N+](=O)[O-]` [L-NNA, N^G-nitro-L-arginine], the “Cu(FL5) fluorescence response in the presence of cNOS inhibitor” value in the data set on cNOS is “notably weaker fluorescence response”.

For the compound `Cc1ccc2cccc(NCc3c(O)ccc4c(-c5ccccc5C(=O)O)c5cc(Cl)c(=O)cc-5oc34)c2n1` [FL5, 2-{2-chloro-6-hydroxy-5-[(2-methyl-quinolin-8-ylamino)-methyl]-3-oxo-3H-xanthen-9-yl}-benzoic acid], the “fluorescence diminished upon introduction of an equimolar quantity of CuCl2” value in data set [4] turned out to be 18±3%. Also, the “increase in fluorescence when treated with excess NO over 30 min” value in data set [1] (no Cu(II): copper-free FL5 or FL5 with Cu(I)) came out at 1.5±0.2 fold. Further, in data set [2] (over a period of 25 min), the “fluorescence change in stimulated SK—N—SH cells in the absence of Cu(II) ion” value is on record as “no fluorescence increase”. Besides, in data set [5], the “turn-on fluorescence in stimulated Raw 264.7 cells without Cu(II) ion” value was “turn-on fluorescence emission was not observed”.

The record behind these values is patent publication US8709743B2, “Inhibitors of bacterial nitric oxide synthase, and related screening methods” (Massachusetts Institute of Technology, priority 2007, dated 2014).
